Measurements: PubChem BioAssay (NCI)
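Test compounds were applied to cells in 96-well plates for 48 hours at 5 doses. The concentration for 50% growth inhibition is given as GI50. The concentration for full growth arrest is given as TGI.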

What was measured:
Assay in all cases: growth of human tumour cells (NCI), 48 h
T-47D breast = system: T-47D breast
U251 CNS = system: U251 CNS
HCT-116 colon = system: HCT-116 colon
OVCAR-5 ovarian = system: OVCAR-5 ovarian
CAKI-1 renal = system: CAKI-1 renal
RXF 393 renal = system: RXF 393 renal
MDA-MB-435 = system: MDA-MB-435
LOX IMVI melanoma = system: LOX IMVI melanoma
SK-MEL-28 melanoma = system: SK-MEL-28 melanoma
NCI-H226 lung = system: NCI-H226 lung
EKVX NSCLC = system: EKVX NSCLC
PC-3 prostate = system: PC-3 prostate
SN12C renal = system: SN12C renal
HS 578T breast = system: HS 578T breast
HT29 colon = system: HT29 colon
OVCAR-4 ovarian = system: OVCAR-4 ovarian
HCC-2998 colon = system: HCC-2998 colon
DU-145 prostate = system: DU-145 prostate
OVCAR-3 ovarian = system: OVCAR-3 ovarian
SNB-19 CNS = system: SNB-19 CNS
MOLT-4 leukemia = system: MOLT-4 leukemia
HCT-15 colon = system: HCT-15 colon
OVCAR-8 ovarian = system: OVCAR-8 ovarian
SF-539 CNS = system: SF-539 CNS
MDA-MB-231 breast = system: MDA-MB-231 breast
M14 melanoma = system: M14 melanoma
A549 NSCLC = system: A549 NSCLC
ACHN renal = system: ACHN renal
IGROV1 ovarian = system: IGROV1 ovarian
COLO 205 colon = system: COLO 205 colon
786-0 renal = system: 786-0 renal
HL-60(TB) leukemia = system: HL-60(TB) leukemia
SF-295 CNS = system: SF-295 CNS
SF-268 CNS = system: SF-268 CNS
SK-OV-3 ovarian = system: SK-OV-3 ovarian
NCI/ADR-RES ovarian = system: NCI/ADR-RES ovarian
A498 renal = system: A498 renal
HOP-92 NSCLC = system: HOP-92 NSCLC
SR leukemia = system: SR leukemia
SK-MEL-2 melanoma = system: SK-MEL-2 melanoma
K-562 leukemia = system: K-562 leukemia
KM12 colon = system: KM12 colon
RPMI-8226 leukemia = system: RPMI-8226 leukemia
SW-620 colon = system: SW-620 colon
UACC-257 melanoma = system: UACC-257 melanoma
BT-549 breast = system: BT-549 breast
MCF7 breast = system: MCF7 breast
CCRF-CEM leukemia = system: CCRF-CEM leukemia
UACC-62 melanoma = system: UACC-62 melanoma
HOP-62 NSCLC = system: HOP-62 NSCLC
UO-31 renal = system: UO-31 renal
SNB-75 CNS = system: SNB-75 CNS
TK-10 renal = system: TK-10 renal
NCI-H522 lung = system: NCI-H522 lung
NCI-H23 lung = system: NCI-H23 lung
NCI-H460 lung = system: NCI-H460 lung
SK-MEL-5 melanoma = system: SK-MEL-5 melanoma

Work on `O=C1OCC2=C1C(c1cccc(F)c1)c1cc3c(cc1N2CCO)CCC3` (stereo not drawn) yielded a GI50 (T-47D breast) of 2930 nM, a TGI (T-47D breast) greater than 50000 nM and a GI50 (U251 CNS) of 90.4 nM. For the same compound, the TGI (U251 CNS) was greater than 34000 nM, the GI50 (HCT-116 colon) was 81.9 nM and the TGI (HCT-116 colon) was greater than 50000 nM. The GI50 (OVCAR-5 ovarian) was 205 nM, the TGI (OVCAR-5 ovarian) was greater than 50000 nM and the GI50 (CAKI-1 renal) was 38.1 nM. It also gave a TGI (CAKI-1 renal) greater than 33300 nM, a GI50 (RXF 393 renal) of 91.4 nM and a TGI (RXF 393 renal) greater than 50000 nM. It also gave a GI50 (MDA-MB-435) of 16.6 nM, a TGI (MDA-MB-435) of 68.4 nM and a GI50 (LOX IMVI melanoma) of 95.8 nM. For the same compound, the TGI (LOX IMVI melanoma) was 10100 nM, the GI50 (SK-MEL-28 melanoma) was 655 nM and the TGI (SK-MEL-28 melanoma) was greater than 50000 nM. The GI50 (NCI-H226 lung) was 1020 nM, the TGI (NCI-H226 lung) was greater than 47600 nM and the GI50 (EKVX NSCLC) was 162 nM. For the same compound, the TGI (EKVX NSCLC) was greater than 50000 nM, the GI50 (PC-3 prostate) was 65.7 nM and the TGI (PC-3 prostate) was greater than 50000 nM. It also gave a GI50 (SN12C renal) of 233 nM, a TGI (SN12C renal) greater than 50000 nM and a GI50 (HS 578T breast) of 50.9 nM. It also gave a TGI (HS 578T breast) greater than 30600 nM, a GI50 (HT29 colon) of 92.2 nM and a TGI (HT29 colon) greater than 18900 nM. The GI50 (OVCAR-4 ovarian) was 1760 nM, the TGI (OVCAR-4 ovarian) was greater than 50000 nM and the GI50 (HCC-2998 colon) was 148 nM. For the same compound, the TGI (HCC-2998 colon) was 11000 nM, the GI50 (DU-145 prostate) was 162 nM and the TGI (DU-145 prostate) was greater than 24400 nM. It also gave a GI50 (OVCAR-3 ovarian) of 29.3 nM, a TGI (OVCAR-3 ovarian) of 3920 nM and a GI50 (SNB-19 CNS) of 113 nM. The TGI (SNB-19 CNS) was greater than 50000 nM, the GI50 (MOLT-4 leukemia) was 237 nM and the TGI (MOLT-4 leukemia) was greater than 50000 nM. The GI50 (HCT-15 colon) was 46.4 nM, the TGI (HCT-15 colon) was greater than 20200 nM and the GI50 (OVCAR-8 ovarian) was 139 nM. It also gave a TGI (OVCAR-8 ovarian) greater than 50000 nM, a GI50 (SF-539 CNS) of 49.1 nM and a TGI (SF-539 CNS) of 434 nM. For the same compound, the GI50 (MDA-MB-231 breast) was 218 nM, the TGI (MDA-MB-231 breast) was greater than 22200 nM and the GI50 (M14 melanoma) was 49.1 nM. For the same compound, the TGI (M14 melanoma) was greater than 20900 nM, the GI50 (A549 NSCLC) was 113 nM and the TGI (A549 NSCLC) was greater than 50000 nM. It also gave a GI50 (ACHN renal) of 129 nM, a TGI (ACHN renal) greater than 50000 nM and a GI50 (IGROV1 ovarian) of 81.7 nM. It also gave a TGI (IGROV1 ovarian) greater than 50000 nM, a GI50 (COLO 205 colon) of 152 nM and a GI50 (786-0 renal) of 71.8 nM. For the same compound, the TGI (786-0 renal) was greater than 50000 nM, the GI50 (HL-60(TB) leukemia) was 77.3 nM and the TGI (HL-60(TB) leukemia) was 376 nM. For the same compound, the GI50 (SF-295 CNS) was 23.3 nM, the TGI (SF-295 CNS) was 10800 nM and the GI50 (SF-268 CNS) was 122 nM. For the same compound, the TGI (SF-268 CNS) was 25200 nM, the GI50 (SK-OV-3 ovarian) was 844 nM and the TGI (SK-OV-3 ovarian) was greater than 50000 nM. It also gave a GI50 (NCI/ADR-RES ovarian) of 43.5 nM, a TGI (NCI/ADR-RES ovarian) greater than 50000 nM and a GI50 (A498 renal) of 13.8 nM. For the same compound, the TGI (A498 renal) was 261 nM, the GI50 (HOP-92 NSCLC) was 1620 nM and the TGI (HOP-92 NSCLC) was 49600 nM. The GI50 (SR leukemia) was 28.5 nM, the TGI (SR leukemia) was 37400 nM and the GI50 (SK-MEL-2 melanoma) was 1070 nM. It also gave a TGI (SK-MEL-2 melanoma) of 39000 nM, a GI50 (K-562 leukemia) of 28 nM and a TGI (K-562 leukemia) greater than 50000 nM. It also gave a GI50 (KM12 colon) of 55.9 nM, a TGI (KM12 colon) greater than 50000 nM and a GI50 (RPMI-8226 leukemia) of 167 nM. The TGI (RPMI-8226 leukemia) was 29700 nM, the GI50 (SW-620 colon) was 57.1 nM and the TGI (SW-620 colon) was greater than 50000 nM. The GI50 (UACC-257 melanoma) was 12200 nM, the TGI (UACC-257 melanoma) was greater than 50000 nM and the GI50 (BT-549 breast) was 161 nM. For the same compound, the TGI (BT-549 breast) was 6950 nM, the GI50 (MCF7 breast) was 22.9 nM and the TGI (MCF7 breast) was greater than 29000 nM. For the same compound, the GI50 (CCRF-CEM leukemia) was 168 nM, the TGI (CCRF-CEM leukemia) was greater than 50000 nM and the GI50 (UACC-62 melanoma) was 22.7 nM. For the same compound, the TGI (UACC-62 melanoma) was 33400 nM, the GI50 (HOP-62 NSCLC) was 798 nM and the TGI (HOP-62 NSCLC) was greater than 50000 nM. The GI50 (UO-31 renal) was 107 nM, the TGI (UO-31 renal) was greater than 42500 nM and the GI50 (SNB-75 CNS) was 13.6 nM. The TGI (SNB-75 CNS) was 47400 nM, the GI50 (TK-10 renal) was 433 nM and the TGI (TK-10 renal) was greater than 50000 nM. The GI50 (NCI-H522 lung) was 16.9 nM, the TGI (NCI-H522 lung) was 704 nM and the GI50 (NCI-H23 lung) was 248 nM. The TGI (NCI-H23 lung) was greater than 50000 nM, the GI50 (NCI-H460 lung) was 60.9 nM and the TGI (NCI-H460 lung) was 6970 nM. It also gave a GI50 (SK-MEL-5 melanoma) of 62.6 nM and a TGI (SK-MEL-5 melanoma) of 2580 nM.
